How the values were obtained:
Assay type in all cases: cell-based
[1] = system: Aspergillus flavus; test: MIC, YAG medium; conditions: Aspergillus flavus, 24 h, 24 h at 35° C, MIC banded into grades, read-out: MIC grade, A. flavus
Method: (§1) Between 1 and 5 mgs of compound were accurately weighed out into a sterile Eppendorf tube. The compound was dissolved in DMSO to give a solution containing 5 mg/mL. Tubes were stored at −20° C. until required.
(§2) On the day of testing thawed solutions were vortex mixed to ensure homogeneity. 30 μL of solution was removed and added to 570 μL of sterile water in a separate sterile Eppendorf. The thoroughly mixed solution was used to prepare a series of doubling dilutions in water, in a deep well plate. Thirteen replicate plates were prepared using a Minitrak by aspirating 20 μL from each well into eleven clear polystyrene 96 well plates.
(§3) Spores of Aspergillus spp. (Aspergillus fumigatus [two strains], Aspergillus terreus [two strains], Aspergillus niger and Aspergillus flavus) were harvested from cultures grown on Sabarauds agar for 5 days, and resuspended in PBS/Tween 80 to approx 1×10^7 cfu/mL. Each organism suspension was diluted in YAG medium (1% glucose, 1% ammonium chloride and 0.5% yeast extract) to 0.5−2×10^4 cfu/mL. 80 μL of an organism suspension was added to each well of the plate containing drug dilutions.
(§4) This produced MIC plates with a drug range 50-0.05 mg/L and organism inocula of 1−2×10^4 cfu/mL for Aspergillus spp. All plates were incubated for 24 h at 35° C. Growth was assessed by monitoring the optical density at 485 nm for each well. The MIC of a compound is the lowest drug concentration that inhibits growth of an organism by >70% compared with a drug free control. MICs are recorded as mg/L. In cases where the MIC of an organism is […] mg/L the MIC is repeated using a concentration range of 0.5-0.0005 mg/L.
(§5) The following organisms were tested: Aspergillus flavus, Aspergillus fumigatus AF293 and AF210, Aspergillus niger, Aspergillus terreus AT4 and AT49, Candida albicans, Candida glabrata, Candida krusei, Candida parapsilosis and Candida tropicalis.

[2] = system: Aspergillus fumigatus AF210; test: MIC, YAG medium; conditions: Aspergillus fumigatus, 24 h at 35° C, MIC banded into grades, read-out: MIC grade, A. fumigatus 210
Method: as §1, §2, §3, §4, §5

[3] = system: Aspergillus fumigatus AF293; test: MIC, YAG medium; conditions: Aspergillus fumigatus, 24 h at 35° C, MIC banded into grades, read-out: MIC grade, A. fumigatus
Method: as §1, §2, §3, §4, §5

[4] = system: Aspergillus niger; test: MIC, YAG medium; conditions: Aspergillus niger, 24 h at 35° C, MIC banded into grades, read-out: MIC grade, A. niger
Method: as §1, §2, §3, §4, §5

[5] = system: Aspergillus terreus AT49; test: MIC, YAG medium; conditions: Aspergillus terreus, 24 h at 35° C, MIC banded into grades, read-out: MIC grade, A. terreus 49
Method: as §1, §2, §3, §4, §5

[6] = system: Aspergillus terreus AT4; test: MIC, YAG medium; conditions: Aspergillus terreus, 24 h at 35° C, MIC banded into grades, read-out: MIC grade, A. terreus
Method: as §1, §2, §3, §4, §5

[7] = system: Aspergillus flavus; test: MIC, RPMI medium; conditions: Aspergillus flavus, MIC banded into grades, read-out: MIC grade, A. flavus
Method: as §1, §2
(§6) Assays were also performed in RPMI medium for both Aspergillus spp. (strains described above) and Candida spp. (Candida albicans, Candida glabrata, Candida krusei, Candida parapsilosis and Candida tropicalis). To perform MIC tests in this medium, dilutions of compounds are prepared in microtitre plates as described above. Fungal strains to be tested are grown and harvested in an identical manner to that described above, and each organism suspension was diluted in RPMI medium, containing 2% glucose and 0.135 M MOPS buffer (pH 7.0) to 0.5-2×10^4 cfu/mL, rather than in YAG medium. 80 μL of an organism suspension was added to each well of the plate containing drug dilutions.
(§7) This produced MIC plates with a drug range 50-0.05 mg/L and organism inocula of 1−2×10^4 cfu/mL. All plates were incubated for 24-48 h at 35° C. Growth was assessed by monitoring the optical density at 485 nm for each well. The MIC of a compound is the lowest drug concentration that inhibits growth of an organism by >80% compared with a drug free control.
as §5

[8] = system: Aspergillus fumigatus AF210; test: MIC, RPMI medium; conditions: Aspergillus fumigatus, AF210, MIC banded into grades, read-out: MIC grade, A. fumigatus 210
Method: as §1, §2, §6, §7, §5

[9] = system: Aspergillus fumigatus AF293; test: MIC, RPMI medium; conditions: Aspergillus fumigatus, AF293, MIC banded into grades, read-out: MIC grade, A. fumigatus
Method: as §1, §2, §6, §7, §5

[10] = system: Aspergillus niger; test: MIC, RPMI medium; conditions: Aspergillus niger, MIC banded into grades, read-out: MIC grade, A. niger
Method: as §1, §2, §6, §7, §5

[11] = system: Aspergillus terreus AT49; test: MIC, RPMI medium; conditions: Aspergillus terreus, AT49, MIC banded into grades, read-out: MIC grade, A. terreus 49
Method: as §1, §2, §6, §7, §5

[12] = system: Aspergillus terreus AT4; test: MIC, RPMI medium; conditions: Aspergillus terreus, AT4, MIC banded into grades, read-out: MIC grade, A. terreus
Method: as §1, §2, §6, §7, §5

Measured: MIC

COCCCn1c(C)cc(-c2ccccc2)c1C(=O)C(=O)Nc1ccc(N2CCN(c3cc(C)cc(C)n3)CC2)cc1 [Example 28, N-{4-[4-(4,6-Dimethyl-pyridin-2-yl)-piperazin-1-yl]-phenyl}-2-[1-(3-methoxy-propyl)-5-methyl-3-phenyl-1H-pyrrol-2-yl]-2-oxo-acetamide]
1 to 10 mg/L: [1] | [7] | [11] | [12]
< 1 mg/L: all other assays above

COCCn1c(C)cc(-c2ccccc2)c1C(=O)C(=O)Nc1cccc2ncccc12 [Example 29, 2-[1-(2-Methoxy-ethyl)-5-methyl-3-phenyl-1H-pyrrol-2-yl]-2-oxo-N-quinolin-5-yl-acetamide]
> 10 mg/L: all assays above

COCCn1c(C)cc(-c2ccccc2)c1C(=O)C(=O)Nc1cccc2cnccc12 [Example 30, N-Isoquinolin-5-yl-2-[1-(2-methoxy-ethyl)-5-methyl-3-phenyl-1H-pyrrol-2-yl]-2-oxo-acetamide]
1 to 10 mg/L: [1] | [2] | [3] | [5] | [6]
> 10 mg/L: all other assays above

Cc1cc(-c2ccccc2)c(C(=O)C(=O)Nc2cccc3cccnc23)n1C [Example 31, 2-(1,5-Dimethyl-3-phenyl-1H-pyrrol-2-yl)-2-oxo-N-quinolin-8-yl-acetamide]
< 1 mg/L: [1] | [5] | [6] | [11] | [12]
1 to 10 mg/L: all other assays above

Cc1cc(-c2ccccc2)c(C(=O)C(=O)Nc2cccc3ncccc23)n1C [Example 32, 2-(1,5-Dimethyl-3-phenyl-1H-pyrrol-2-yl)-2-oxo-N-quinolin-5-yl-acetamide]
< 1 mg/L: [1] | [5] | [6]
> 10 mg/L: [8] | [9]
1 to 10 mg/L: all other assays above

Cc1cc(-c2ccccc2)c(C(=O)C(=O)Nc2ccncc2)n1C [Example 33, 2-(1,5-Dimethyl-3-phenyl-1H-pyrrol-2-yl)-2-oxo-N-pyridin-4-yl-acetamide]
1 to 10 mg/L: [5]
> 10 mg/L: all other assays above

Source: patent publication US8993574B2, “Pyrrole antifungal agents” (F2G Ltd, priority 2008, dated 2015)
